Experimental data taken from patent EP4759815A1, “FUSED TRICYCLIC COMPOUND, PHARMACEUTICAL COMPOSITION THEREOF, AND USE THEREOF” (Haihe Biopharma Co., Ltd., priority 2023, dated 2025).
Like-named read-outs stand apart in the source and are kept apart here.

How the values were obtained:
[1] = target: Recombinant human PARP1 protein (Homo sapiens, UniProt P09874); test: PARP1 inhibitory activity (histone substrate, chemiluminescent ELISA); assay type: biochemical; settings: for PARP1/2 Fold selectivity: ratio of PARP2 IC50 to PARP1 IC50
MDA-MB-436 cells = test: MDA-MB-436 cell proliferation inhibition test (CellTiter-Glo, 7 days); assay type: cell-based; settings: Homo sapiens, MDA-MB-436, 168 h, 7 days incubation
PDE3A = target: T1, PDE3A (Homo sapiens, UniProt Q14432); test: PDE3A enzyme activity test (IMAP FP); assay type: biochemical; settings: PDE3A protein 0.2 nM, FAM-cAMP 200 nM, 60 minutes at rt; off-target safety
T1 construct: purchased ICE G13020203013

[2] = Preliminary pharmacokinetic tests in mice; assay type: in vivo; settings: male, ICR; for AUC(0-t) / clearance / half-life: mouse plasma; for bioavailability: plasma, oral, mouse, p.o.(5mg/kg) versus i.v.(1mg/kg)
[3] = Test of blood-brain barrier properties in rats; assay type: in vivo; settings: male, Wistar Han, brain/plasma; rat, intravenous 1 mg/kg, after 4 h; read-out: Ratio % (brain/blood)
[4] = target: T2, recombinant human PARP2 protein (Homo sapiens, UniProt Q9UGN5); test: PARP2 inhibitory activity (histone substrate, chemiluminescent ELISA); assay type: biochemical
T2 construct: purchased BPS 80502

[5] = histone substrate, 500 µM NAD+ added to the substrate solution, read-out: PARP1 IC50
[6] = histone substrate, read-out: PARP2 IC50

T2 sequence (Q9UGN5 whole entry): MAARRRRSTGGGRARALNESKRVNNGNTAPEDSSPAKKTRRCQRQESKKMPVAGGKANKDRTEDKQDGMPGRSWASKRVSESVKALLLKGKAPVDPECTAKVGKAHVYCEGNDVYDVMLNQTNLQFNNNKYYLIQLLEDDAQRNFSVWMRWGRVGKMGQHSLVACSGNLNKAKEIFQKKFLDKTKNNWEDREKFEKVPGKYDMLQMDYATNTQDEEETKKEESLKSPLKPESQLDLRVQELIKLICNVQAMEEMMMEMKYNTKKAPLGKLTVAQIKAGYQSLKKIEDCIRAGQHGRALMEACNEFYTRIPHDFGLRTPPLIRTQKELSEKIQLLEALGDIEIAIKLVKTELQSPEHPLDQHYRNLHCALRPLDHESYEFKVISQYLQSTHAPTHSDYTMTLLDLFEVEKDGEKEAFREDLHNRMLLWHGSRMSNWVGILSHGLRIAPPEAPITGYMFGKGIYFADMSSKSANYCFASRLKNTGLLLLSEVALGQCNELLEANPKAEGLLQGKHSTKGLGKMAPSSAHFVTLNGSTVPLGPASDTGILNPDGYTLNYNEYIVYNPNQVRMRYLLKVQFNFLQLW
Chain of Recombinant human PARP1 protein (P09874 whole entry): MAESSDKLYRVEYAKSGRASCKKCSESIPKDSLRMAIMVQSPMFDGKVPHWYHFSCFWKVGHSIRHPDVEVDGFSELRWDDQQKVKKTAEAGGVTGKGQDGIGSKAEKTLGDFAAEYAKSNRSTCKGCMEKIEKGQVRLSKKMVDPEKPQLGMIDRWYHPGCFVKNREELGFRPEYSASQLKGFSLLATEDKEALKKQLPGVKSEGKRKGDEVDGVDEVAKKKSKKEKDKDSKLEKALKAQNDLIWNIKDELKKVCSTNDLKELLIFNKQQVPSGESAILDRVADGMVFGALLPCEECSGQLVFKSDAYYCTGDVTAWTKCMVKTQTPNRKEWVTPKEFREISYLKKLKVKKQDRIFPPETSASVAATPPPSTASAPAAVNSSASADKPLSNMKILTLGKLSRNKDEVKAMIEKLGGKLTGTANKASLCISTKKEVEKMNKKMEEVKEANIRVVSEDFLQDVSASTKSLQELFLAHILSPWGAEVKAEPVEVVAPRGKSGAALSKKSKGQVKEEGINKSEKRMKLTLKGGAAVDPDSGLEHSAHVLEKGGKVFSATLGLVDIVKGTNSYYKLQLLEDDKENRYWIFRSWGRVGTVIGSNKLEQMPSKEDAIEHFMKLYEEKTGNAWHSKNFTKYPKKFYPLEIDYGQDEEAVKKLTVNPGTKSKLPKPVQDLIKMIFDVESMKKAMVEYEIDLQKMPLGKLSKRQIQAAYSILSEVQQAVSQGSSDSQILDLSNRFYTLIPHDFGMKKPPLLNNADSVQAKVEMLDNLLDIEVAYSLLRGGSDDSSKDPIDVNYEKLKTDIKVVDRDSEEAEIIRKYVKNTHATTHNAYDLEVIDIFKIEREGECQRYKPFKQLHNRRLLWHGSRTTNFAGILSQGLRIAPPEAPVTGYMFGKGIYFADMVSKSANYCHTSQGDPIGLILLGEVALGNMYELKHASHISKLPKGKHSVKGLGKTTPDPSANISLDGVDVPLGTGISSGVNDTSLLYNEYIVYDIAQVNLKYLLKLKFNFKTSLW
T1 sequence (Q14432 whole entry, species assumed): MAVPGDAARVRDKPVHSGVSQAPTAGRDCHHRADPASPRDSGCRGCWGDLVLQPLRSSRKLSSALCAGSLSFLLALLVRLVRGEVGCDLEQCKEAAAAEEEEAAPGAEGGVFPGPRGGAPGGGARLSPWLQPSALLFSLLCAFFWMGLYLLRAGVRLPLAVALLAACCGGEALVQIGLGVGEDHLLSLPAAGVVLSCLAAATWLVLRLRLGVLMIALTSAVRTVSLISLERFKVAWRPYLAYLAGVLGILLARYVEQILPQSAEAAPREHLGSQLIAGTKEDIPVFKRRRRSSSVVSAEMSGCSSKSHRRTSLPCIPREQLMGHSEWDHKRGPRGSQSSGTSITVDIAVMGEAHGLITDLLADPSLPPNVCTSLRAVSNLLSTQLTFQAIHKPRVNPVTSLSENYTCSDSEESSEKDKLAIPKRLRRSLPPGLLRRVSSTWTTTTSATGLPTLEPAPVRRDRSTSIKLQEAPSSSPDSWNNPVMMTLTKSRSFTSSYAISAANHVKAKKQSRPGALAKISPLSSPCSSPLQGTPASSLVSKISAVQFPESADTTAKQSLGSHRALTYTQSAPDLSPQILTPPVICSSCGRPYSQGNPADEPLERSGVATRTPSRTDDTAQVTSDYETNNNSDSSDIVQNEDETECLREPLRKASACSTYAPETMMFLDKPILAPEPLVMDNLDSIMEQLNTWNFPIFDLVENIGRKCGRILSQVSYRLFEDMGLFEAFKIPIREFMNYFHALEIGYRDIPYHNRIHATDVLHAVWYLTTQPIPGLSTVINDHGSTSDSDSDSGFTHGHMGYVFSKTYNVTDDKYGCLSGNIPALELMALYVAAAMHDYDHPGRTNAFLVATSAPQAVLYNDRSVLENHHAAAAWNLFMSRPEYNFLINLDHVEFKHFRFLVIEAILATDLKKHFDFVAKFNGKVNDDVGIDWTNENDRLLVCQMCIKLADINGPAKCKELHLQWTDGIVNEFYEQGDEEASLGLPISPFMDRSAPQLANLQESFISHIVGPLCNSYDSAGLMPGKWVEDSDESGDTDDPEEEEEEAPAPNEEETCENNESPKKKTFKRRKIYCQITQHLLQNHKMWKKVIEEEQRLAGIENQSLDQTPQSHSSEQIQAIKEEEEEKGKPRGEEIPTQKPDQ

| SMILES | IC50 [1, 5] [µM] | IC50 (MDA-MB-436 cells) [µM] | PARP1/2 Fold selectivity [1] | IC50 [4, 6] [µM] | other results |
| --- | --- | --- | --- | --- | --- |
| CC[C@H]1C(=O)Nc2cc(CN3CCN(c4ccc(C(=O)NC)nc4F)CC3)cc3cnn1c23 [Compound 5-1] | 0.00135 | 0.0274 | – | – | – |
| CC[C@@H]1C(=O)Nc2cc(CN3CCN(c4ccc(C(=O)NC)nc4F)CC3)cc3cnn1c23 [Compound 5-2] | 0.00103 | 0.0148 | – | – | IC50 (PDE3A): > 10 µM |
| CCC1C(=O)Nc2cc(CN3CCN(c4ccc(C(=O)NC)nc4F)CC3)cc3cnn1c23 (stereo not shown) [Compound 5] | 0.00078 | 0.0154 | – | – | – |
| CNC(=O)c1ccc(N2CCN(Cc3cc4c5c(cnn5[C@H](C)C(=O)N4)c3)CC2)c(Cl)n1 [Compound 6-2] | – | – | – | – | IC50 (PDE3A): 0.239 µM |
| CNC(=O)c1ccc(N2CCN(Cc3cc4c5c(cnn5C(C)C(=O)N4)c3)CC2)c(Cl)n1 (stereo not shown) [Compound 6] | – | – | – | – | AUC(0-t) ([2]; iv, i.v.(1mg/kg)): 5030 ng·h/mL; clearance ([2]; iv, i.v.(1mg/kg)): 3.3 mL/min/kg; half-life ([2]; iv, i.v.(1mg/kg)): 1.3 h; bioavailability [2]: 117%; AUC(0-t) ([2]; po, p.o.(5mg/kg)): 28700 ng·h/mL; half-life ([2]; po, p.o.(5mg/kg)): 2.7 h |
| CNC(=O)c1ccc(N2CCN(Cc3cc4c5c(cnn5C(C)C(=O)N4)c3)CC2)c(C)n1 (stereo not shown) [Compound 7] | – | – | – | – | Kp at 4 h [3]: 0.138 |
| CCC1C(=O)Nc2cc(CN3CCN(c4ccc(C(=O)NC)nc4Cl)CC3)cc3cnn1c23 (stereo not shown) [Compound 8] | – | 0.0127 | – | – | – |
| CNC(=O)c1ccc(N2CCN(Cc3cc4c5c(cnn5c3)N(C)C(=O)N4)CC2)c(C)n1 [Compound 19] | 0.00142 | < 0.00152 | 516 | 0.732 | IC50 (PDE3A): 0.433 µM |
| CNC(=O)c1ccc(N2CCN(Cc3cc4c5c(cnn5CC(=O)N4)c3)CC2)c(Cl)n1 [Compound 26] | 0.00028 | – | 5150 | 1.44 | – |
| CCN1C(=O)Nc2cc(CN3CCN(c4ccc(C(=O)NC)nc4C)CC3)cn3ncc1c23 [Compound 30] | 0.00124 | 0.0027 | 170.8 | 0.211 | – |
| CCN1C(=O)Nc2cc(CN3CCN(c4ccc(C(=O)NC)nc4F)CC3)cn3ncc1c23 [Compound 33] | – | < 0.00152 | – | – | – |
| CCN1C(=O)Nc2cc(CN3CCN(c4ccc(C(=O)NC)nc4Cl)CC3)cn3ncc1c23 [Compound 34] | – | 0.0023 | – | – | – |
| CC1C(=O)Nc2cc(CN3CCN(c4ccc(C#N)cn4)CC3)cc3cnn1c23 (stereo not shown) [Compound 35] | – | 0.213 | – | – | – |
| CNC(=O)c1ccc(N2CCN(Cc3cc4c5c(cnn5C5(CC5)C(=O)N4)c3)CC2)c(F)n1 [Compound 37] | 0.00024 | < 0.00152 | 36.3 | 0.0087 | – |
| CNC(=O)c1ccc(N2CCN(Cc3cc4c5c(cnn5C5(CC5)C(=O)N4)c3)CC2)c(Cl)n1 [Compound 38] | – | < 0.00152 | – | – | – |
| CNC(=O)c1ccc(N2CCN(Cc3cc4c5c(cnn5C5(CC5)C(=O)N4)c3)CC2)c(C)n1 [Compound 39] | – | < 0.00152 | – | – | – |
| CNC(=O)c1ccc(N2CCN(Cc3cc4c5c(cnn5C5(CC5)C(=O)N4)c3)C[C@H]2C)c(C)n1 [Compound 40] | 0.00023 | 0.0179 | 353.6 | 0.081 | AUC(0-t) ([2]; iv, i.v.(1mg/kg)): 4410 ng·h/mL; clearance ([2]; iv, i.v.(1mg/kg)): 3.8 mL/min/kg; half-life ([2]; iv, i.v.(1mg/kg)): 3.6 h; bioavailability [2]: 124%; AUC(0-t) ([2]; po, p.o.(5mg/kg)): 31100 ng·h/mL; half-life ([2]; po, p.o.(5mg/kg)): 3.1 h; IC50 (PDE3A): 0.635 µM |
| CNC(=O)c1ccc(N2CCN(Cc3cc4cnn5c4c(c3F)NC(=O)C53CC3)CC2)c(Cl)n1 [Compound 41] | 0.0001 | 0.0044 | 719 | 0.0719 | – |
| CNC(=O)c1ccc(N2CCN(Cc3cc4c5c(cnn5[C@@H](C5CC5)C(=O)N4)c3)CC2)c(Cl)n1 [Compound 43-1] | 0.00167 | 0.0087 | 344.5 | 0.575 | – |
| CNC(=O)c1ccc(N2CCN(Cc3cc4c5c(cnn5[C@H](C5CC5)C(=O)N4)c3)CC2)c(Cl)n1 [Compound 43-2] | 0.00104 | 0.0017 | 133.3 | 0.139 | – |
| CNC(=O)c1ccc(N2CCN(Cc3cc4c5c(c3)ncn5[C@@H](C3CC3)C(=O)N4)CC2)c(Cl)n1 [Compound 47-1] | 0.00068 | 0.0202 | 1326 | 0.901 | IC50 (PDE3A): > 10 µM |
| CNC(=O)c1ccc(N2CCN(Cc3cc4c5c(c3)ncn5[C@H](C3CC3)C(=O)N4)CC2)c(Cl)n1 [Compound 47-2] | 0.00121 | 0.0167 | 232.5 | 0.281 | IC50 (PDE3A): > 10 µM |

| SMILES | IC50 [1, 5] [µM] | IC50 (MDA-MB-436 cells) [µM] | PARP1/2 Fold selectivity [1] | IC50 [4, 6] [µM] | other results |
| --- | --- | --- | --- | --- | --- |
| CNC(=O)c1ccc(N2CCN(Cc3cc4c5c(c3)ncn5[C@@H](C3CC3)C(=O)N4)CC2)c(C)n1 [Compound 49-1] | 0.00071 | 0.0204 | 1852 | 1.31 | – |
| CNC(=O)c1ccc(N2CCN(Cc3cc4c5c(c3)ncn5[C@H](C3CC3)C(=O)N4)CC2)c(C)n1 [Compound 49-2] | 0.00153 | 0.018 | 281.5 | 0.431 | IC50 (PDE3A): > 10 µM |
| CNC(=O)c1ccc(N2CCN(Cc3cc4c5c(cnn5c3)N(C3CC3)C(=O)N4)CC2)c(F)n1 [Compound 53] | 0.00216 | 0.0022 | 21.1 | 0.0455 | – |
| CNC(=O)c1ccc(N2CCN(Cc3cc4c5c(cnn5c3)N(C3CC3)C(=O)N4)CC2)c(C)n1 [Compound 54] | 0.0004 | < 0.00152 | 21.1 | 0.0452 | IC50 (PDE3A): 0.428 µM |
| CNC(=O)c1ccc(N2CCN(Cc3cc4c5c(cnn5c3)N(C(C)C)C(=O)N4)CC2)c(F)n1 [Compound 55] | 0.00264 | – | 382 | 1.01 | – |
| CNC(=O)c1ccc(N2CCN(Cc3cc4c5c(cnn5c3)N(C(C)C)C(=O)N4)CC2)c(C)n1 [Compound 56] | 0.00334 | 0.015 | 364.5 | 1.22 | IC50 (PDE3A): 0.878 µM |
| CNC(=O)c1ccc(N2CCN(Cc3cc4c5c(c(C)nn5c3)N(C)C(=O)N4)CC2)c(C)n1 [Compound 57] | – | 0.0013 | – | – | – |
| CNC(=O)c1ccc(N2CCN(Cc3cc4c5c(c(C(F)(F)F)nn5c3)N(C)C(=O)N4)CC2)c(C)n1 [Compound 58] | 0.00099 | 0.0012 | 206 | 0.204 | – |
| CNC(=O)c1ccc(N2CCN(Cc3cc4c5c(cnn5c3)N(C3CCC3)C(=O)N4)CC2)c(C)n1 [Compound 59] | – | 0.0065 | – | – | IC50 (PDE3A): > 10 µM |
| CNC(=O)c1ccc(N2CCN(Cc3cc4c5c(cnn5c3)N(CC(F)(F)F)C(=O)N4)CC2)c(C)n1 [Compound 61] | – | 0.0162 | – | – | IC50 (PDE3A): 1.44 µM |
| CCCN1C(=O)Nc2cc(CN3CCN(c4ccc(C(=O)NC)nc4C)CC3)cn3ncc1c23 [Compound 62] | 0.0033 | 0.0209 | 422.3 | 1.4 | – |
| CNC(=O)c1ccc(N2CCN(Cc3cc4c5c(cnn5c3)N(CCO)C(=O)N4)CC2)c(C)n1 [Compound 63] | 0.0021 | 0.0168 | 827.4 | 1.83 | – |
| CNC(=O)c1ccc(N2CCN(Cc3cc4c5c(cnn5c3)NC(=O)N4)CC2)c(C)n1 [Compound 64] | – | 0.0175 | – | – | – |
| CNC(=O)c1ccc(N2CCN(Cc3cn4ncc5c4c(c3C)NC(=O)N5C3CC3)CC2)c(C)n1 [Compound 66] | 0.0033 | 0.0481 | 417.5 | 1.38 | – |
| CNC(=O)c1ccc(N2CCN(Cc3cc4c5c(cnn5c3)N(CC(C)O)C(=O)N4)CC2)c(C)n1 (stereo not shown) [Compound 67] | – | 0.392 | – | – | – |
| CNC(=O)c1ccc(N2CCN(Cc3cc4c5c(cnn5c3)N(CC3CCC3)C(=O)N4)CC2)c(C)n1 [Compound 69] | – | 0.72 | – | – | – |
| CNC(=O)c1ccc(N2CCN(Cc3cc4c5c(cnn5c3)N(C3CCC3)C(=O)N4)C[C@H]2C)c(C)n1 [Compound 72] | 0.0049 | – | 97.6 | 0.474 | – |
| CNC(=O)c1ccc(N2CCN(Cc3cc4c5c(cnn5c3)N(C3CCC3)C(=O)N4)CC2)c(Cl)n1 [Compound 73] | – | 0.0032 | – | – | – |
| CNC(=O)c1ccc(N2CCN(Cc3cc4c5c(cnn5c3)N(C3CCC3)C(=O)N4)[C@H](C)C2)c(C)n1 [Compound 79] | – | 0.0218 | – | – | – |
| CNC(=O)c1ccc(N2CCN(Cc3cc4c5c(cnn5c3)N(C3CCC3)C(=O)N4)[C@H](C)C2)c(Cl)n1 [Compound 80] | – | 0.0187 | – | – | – |
| CNC(=O)c1ccc(N2CCN(Cc3cc4c5c(c3)ncn5C(C3CCC3)C(=O)N4)CC2)c(Cl)n1 (stereo not shown) [Compound 81] | 0.0042 | 0.0046 | 574.1 | 2.41 | – |
| CCN1C(=O)Nc2cc(CN3CCN(c4ccc(C(=O)NC)nc4F)CC3)cc3c2c1nn3C [Compound B1, 5-(4-((3-ethyl-1-methyl-4-oxo-1,3,4,5-tetrahydropyrazolo[3,4,5-d]quinazolin-7-yl)methyl)piperazine-1-yl)-6-fluoro-N-methylpicolinamide, reference compound] | – | – | 2.64 | – | IC50 [1]: 0.0014 µM; IC50 [4]: 0.0037 µM |
